The values that follow come from patent publication US20150314021A1, “STERILIZATION METHOD COMPRISING STERILIZATION FLUID AND ULTRASONICALLY GERERATED CAVITATION MICROBUBBLES” (DEVIS TECHNOLOGIES INC., priority 2012, published 2015).

This assay relates to Bacillus atrophaeus and Bacillus stearothermophilus. To be noted: H2O2 alone (no ultrasound).

SMILES strings stand for the structures. Where two headings read alike, the source gives them in different places.

In the case of `OO` [Hydrogen Peroxide, hydrogen peroxide], the “reduction in cell count” value is recorded as 50.02% (1 min exposure) and 50.12% (5 min exposure).
